Tested on: A549 cells
Assay: EGF promoted colony formation assay of A549 single cells in DW device
Format: cell-based, human
Conditions: 200 ng mL-1 EGF in DMEM with 10% FBS, 7 days of culture, colonies >15 cells per culture-well, control medium 12.10%
Method: In the EGF promoted colony formation assay, 200 μL of A549 cells at a concentration of 2.2-2.5×10^6 cells per mL was injected into the DW device manually and allowed to settle for 2 min, followed by injecting DMEM with 20% FBS and 1% antibiotics into the microchannel immediately to wash off excess cells in the channel at a flow rate of 600 μL min^−1 for 30 s. Subsequently, the inlet and outlet holes were sealed and the device was flipped upside down to obtain a single cell in a culture-well. The device was then placed in a humidified incubator at 37° C. with 5% CO2 as described above. After 1 day of culture, one of the device (for the control experiment) was injected with 300 μL of DMEM containing 10% FBS and 1% antibiotics to replace the original medium. […] Colonies with cell numbers higher than 15 cells in a culture-well were scored as cell colonies.
Due to its high single-cell capture efficiency and large space of culture wells, the DW device represents an attractive tool for in vitro single-cell colony formation assays in which the growth of individual cells is analyzed. […] The portability and transparency of the DW device allowed the cells in the device to be conveniently analyzed with a conventional microscope during cell culture experiments (FIGS. 7A-D). […]

EGF: epithelial growth factor (EGF, PeproTech, USA) supplied in the culture medium at 200 ng mL-1
colony forming efficiency: 17.56%

Reference: patent US20170145363A1, “MICROFLUIDIC DUAL-WELL DEVICE FOR HIGHTHROUGHPUT SINGLE-CELL CAPTURE AND CULTURE” (NATIONAL HEALTH RESEARCH INSTITUTES, priority 2015, published 2017)
